Reference: patent US8580301B2, “Psychostimulant containing pharmaceutical composition” (PEJO Iserlohn Heilmittel und Diaet GmbH & Co. KG, priority 2004, dated 2013)
Structures can show the parent of a compound that is named as a salt.

What was measured:
[1] = Solubility of methylphenidate hydrochloride in aqueous media / Ph. Eur. buffer solutions; assay type: physicochemical
[2] = Stability in alkaline solution; assay type: physicochemical

With `COC(=O)C(c1ccccc1)C1CCCCN1` (stereo not drawn) [methylphenidate hydrochloride] the “solubility of the maximum daily dose of 60 mg in buffer solutions of the European Pharmacopoeia” value ([1]; 60 mg in 250 ml hydrochloric acid pH 1.2, or 250 ml potassium dihydrogen phosphate buffer pH 4.6 or 6.8) was “dissolves easily”, the water solubility ([1]; aqueous media) was “extremely water soluble” and the “stability in alkaline solution” value [2] was “hydrolysis occurs”.
